From US20040091528A1, “Soluble drug extended release system” (Yamanouchi Pharma Technologies, Inc., priority 2002, published 2004)
Counter-ions that a name gives are not always drawn. Like-named read-outs stand apart in the source and are kept apart here.

Experiments:
[1] = In vitro dissolution (drug release) from 400 mg matrix tablets, USP apparatus II, SGF or SIF; format: physicochemical; set-up: T50 (time during which 50% of drug has been released from matrix): unit not given here; conditions: for T50 (time during which 50% of drug has been released from matrix): 10 wt. % drug, 400 mg PAA/PEO (1:1.5) tablet, modified SIF; for T50 values in SIF, PAA/PEO: PAA/PEO (1:1.5) formulation, 10% of active; for T10 / T50: 1:1.5 PAA/PEO excipient mixture; for T50 values in SIF, PAA/PEO / T10 / T50 / T50 in SIF: SIF; for Comments (interaction with PAA): Table 2; for T50 in SGF: modified SGF
Experimental: Several different formulations with different drugs were manufactured. Drugs were manually mixed with the excipients in a mortar and compressed into 400 mg tablets using Carver press or Oil press with 1000 lb applied force. Flat face 11 mm round tooling was used.
In vitro drug release was measured by in vitro dissolution experiments. […] Drug release was evaluated with either Simulated Gastric Fluid (SGF), pH=1.2 or Simulated Intestinal Fluid (SIF), pH=7.5, both prepared according to USP without enzyme added. Tablet sinkers were applied in all experiments. At predetermined time intervals, a sample was withdrawn from the vessel and assayed using a UV-VIS spectrophotometer at a wavelength of 240 nm.
The release behavior of a large group of basic highly soluble drugs (10 wt. % of drug ) from a directly compressed matrix tablet using 1:1.5 polyacrylic acid/polyethylene oxide (PAA/PEO) mix as excipient was studied under modified Simulated Intestinal Fluid (SIF) conditions.

[2] = cited from earlier work; for Log P: Table 1; for LogP: Table 4
[3] = cited from earlier work
[4] = In vitro dissolution (drug release) from 400 mg matrix tablets, USP apparatus II, SGF or SIF; format: physicochemical; conditions: for T50 values in SIF, PAA/Car: PAA/Carrageenan (1:1) formulation, 25% of active; for T50: negatively charged drugs from negatively charged PAA/PEO matrix
[5] = Table 1, model drug characteristics
[6] = Table 2, positively charged drugs

Row | Compound | T50 (time during which 50% of drug has been released from matrix) [1] | Log P [2] | Solubility [3, 5] | T50 values in SIF, PAA/PEO [1] | T50 values in SIF, PAA/Car [4] | further results
1 | Cc1ncc(CO)c(CO)c1O.Cl [Pyridoxine HCl] | 4 | −1.9 | – | – | – | –
2 | CCCCOc1cc(C(=O)OCCN(CC)CC)ccc1N [Benoxinate HCl] | 22 | 4.0 | 1000 mg/mL | 22 | 23 | LogP [2]: 5.2
3 | CC1OC2(CS1)CN1CCC2CC1 (centres unmarked) [Cevimeline HCl] | 4.5 | 1.1 | 766 mg/mL | – | – | –
4 | Amitriptuline HCl | 57 | – | – | – | – | –
5 | CC(C)(C)CC(C)(C)c1ccc(OCCOCC[N+](C)(C)Cc2ccccc2)cc1 [Benzethonium Chloride] | – | – | – | – | – | T10 [1]: 25 h; Comments (interaction with PAA) [1]: Forms insoluble
6 | CN(C)CCOC(c1ccccc1)c1ccccc1 [Diphenhydramine HCl] | 15 | – | – | 15 | 8 | –
7 | Cc1ncc(C[n+]2csc(CCO)c2C)c(N)n1 [Thiamine HCl] | – | – | – | 7.5 | 7.5 | Solubility [3, 6]: 1000 mg/mL; T10 [1]: 1 h; T50 [1]: 7.5 h; Release behaviour (in words) ([1]; permanently positively charged molecules, 1:1.5 PAA/PEO): slightly fast release
8 | CNS(=O)(=O)CCc1ccc2[nH]cc(C3CCN(C)CC3)c2c1 [Naratriptan HCl] | – | – | – | 22 | 25 | LogP [2]: 1.8
9 | CCOc1ccccc1OCCN[C@H](C)Cc1ccc(OC)c(S(N)(=O)=O)c1 [Tamsulosin HCl] | – | – | – | 26 | 25 | LogP [2]: 2.24
10 | C[N+](C)(C)CC(=O)O [Betaine Hydrochloride] | – | – | – | – | – | T50 in SIF ([1]; 1:1.5 PAA/PEO): 22 h; T50 in SGF ([1]; 1:1.5 PAA/PEO): 4 h
11 | CC(C[N+](C)(C)C)OC(N)=O (centres unmarked) [Bethanechol Chloride] | – | – | – | – | – | T10 [1]: 10 h; T50 [1]: 55 h; T50 in SIF ([1]; 1:1.5 PAA/PEO): 55 h; T50 in SGF ([1]; 1:1.5 PAA/PEO): 24 h; Comments (interaction with PAA) [1]: Forms insoluble
12 | CN(C)CCCN1c2ccccc2CCc2ccccc21 [Imipramine HCl] | 58 | – | 500 mg/mL | – | – | –
13 | Diphenhydramine Citrate | – | – | – | – | – | T50 in SIF ([1]; 1:1.5 PAA/PEO): 25 h; T50 in SGF ([1]; 1:1.5 PAA/PEO): 12 h
14 | CO[C@@]1(NC(=O)CSCC#N)C(=O)N2C(C(=O)[O-])=C(CSc3nnnn3C)CS[C@@H]21.[Na+] [sodium cefmatazole] | – | – | – | – | – | T50 [4]: about 5 hours
15 | CNC(=C[N+](=O)[O-])NCCSCc1ccc(CN(C)C)o1 [Ranitidine HCl] | 11 | 1.3 | ˜200 mg/ml | 11 | 15 | LogP [2]: 1.3
16 | CN[C@@H](C)[C@@H](O)c1ccccc1 [Pseudoephedrine HCl] | 4 | 1.0 | – | – | – | –
17 | COc1ccc([C@@H]2Sc3ccccc3N(CCN(C)C)C(=O)[C@@H]2OC(C)=O)cc1 [Diltiazem HCl] | 18 | 3.6 | 800 mg/mL | 18 | 21 | T50 in SIF ([1]; 1:1.5 PAA/PEO): 18 h; T50 in SGF ([1]; 1:1.5 PAA/PEO): 8 h; LogP [2]: 3.6
18 | COc1cccc(C2(O)CCCCC2CN(C)C)c1 (centres unmarked) [Tramadol HCl] | 31 | 2.5 | >1000 mg/mL | – | – | T50 in SIF ([1]; 1:1.5 PAA/PEO): 31 h; T50 in SGF ([1]; 1:1.5 PAA/PEO): 8 h
19 | C[N+](C)(C)CC(=O)O [Betaine] | – | – | – | – | – | Solubility [3, 6]: 650 mg/mL; T10 [1]: 6 h; T50 [1]: 22 h
20 | CN(C)CCCN1c2ccccc2Sc2ccc(Cl)cc21 [Chlorpromazine HCl] | 56 | – | 400 mg/mL | – | – | –
21 | Cc1nnc(SCC2=C(C(=O)[O-])N3C(=O)[C@@H](NC(=O)Cn4cnnn4)[C@H]3SC2)s1.[Na+] [sodium cefazoline] | – | – | – | – | – | T50 [4]: about 5 hours
22 | CN(C)CCOC(C)(c1ccccc1)c1ccccn1 (centres unmarked) [Doxylamine Succinate] | 23 | 2.5 | 1000 mg/mL | 23 | 22 | LogP [2]: 2.5
